Source: patent publication US9700550B1, “Decreasing expression level of apoptosis-related genes by treating a human subject with a nitroxide” (priority 2016, dated 2017)

Key:
Assay type in all cases: in vivo
[1] = tested on: Bak1, Pdcd5, Casp2, Tradd, Trp53inp1 (mouse gene of Tp53inp1), Casp3, or Casp12; assay: Serum level of apoptosis pathway genes in a human subject after Tempol treatment; conditions: 1500 mg Tempol per day for 180 days
Protocol: A 70-kilogram human subject is identified for increased expression level of Bak1, Pdcd5, Casp2, Tradd, Trp53inp1 (mouse gene of Tp53inp1), Casp3, or Casp12. The human subject is administered a dose of 1500 mg of Tempol per day for 180 days. This may be administered in a single dose, or may be administered as a number of smaller doses over a 24-hour period: for example, three 500-mg doses at eight-hour intervals. Following treatment, the serum level of Bak1, Pdcd5, Casp2, Tradd, Trp53inp1 (mouse gene of Tp53inp1), Casp3, or Casp12, is reduced.
A 70-kilogram human subject is identified for decreased immune response to a bacterial infection. The human subject is administered a dose of 1500 mg of Tempol per day for 180 days. This may be administered in a single dose, or may be administered as a number of smaller doses over a 24-hour period: for example, three 500-mg doses at eight-hour intervals. Following treatment, the serum level of Bak1, Pdcd5, Casp2, Tradd, Trp53inp1 (mouse gene of Tp53inp1), Casp3, or Casp12, is reduced.
A 70-kilogram human subject is identified as at risk for a psychiatric condition. The human subject is administered a dose of 1500 mg of Tempol per day for 180 days. This may be administered in a single dose, or may be administered as a number of smaller doses over a 24-hour period: for example, three 500-mg doses at eight-hour intervals. Following treatment, the serum level of Bak1, Pdcd5, Casp2, Tradd, Trp53inp1 (mouse gene of Tp53inp1), Casp3, or Casp12, is reduced.
A 70-kilogram human subject is identified as risk for stress-induced apoptosis. The human subject is administered a dose of 1500 mg of Tempol per day for 180 days. This may be administered in a single dose, or may be administered as a number of smaller doses over a 24-hour period: for example, three 500-mg doses at eight-hour intervals. Following treatment, the serum level of Bak1, Pdcd5, Casp2, Tradd, Trp53inp1 (mouse gene of Tp53inp1), Casp3, or Casp12, is reduced.
A 70-kilogram human subject is identified as at risk for a disease associated with an increased level of apoptosis. The human subject is administered a dose of 1500 mg of Tempol per day for 180 days. This may be administered in a single dose, or may be administered as a number of smaller doses over a 24-hour period: for example, three 500-mg doses at eight-hour intervals. Following treatment, the serum level of Bak1, Pdcd5, Casp2, Tradd, Trp53inp1 (mouse gene of Tp53inp1), Casp3, or Casp12, is reduced.
A 70-kilogram human subject is identified as at risk of a disease having an increased expression level of Bak1, Pdcd5, Casp2, Tradd, Trp53inp1 (mouse gene of Tp53inp1), Casp3, or Casp12. The human subject is administered a dose of 1500 mg of Tempol per day for 180 days. This may be administered in a single dose, or may be administered as a number of smaller doses over a 24-hour period: for example, three 500-mg doses at eight-hour intervals. Following treatment, the serum level of Bak1, Pdcd5, Casp2, Tradd, Trp53inp1 (mouse gene of Tp53inp1), Casp3, or Casp12, is reduced.
A 70-kilogram human subject is identified as at risk of Parkinson's disease […]. The human subject is administered a dose of 1500 mg of Tempol per day for 180 days. This may be administered in a single dose, or may be administered as a number of smaller doses over a 24-hour period: for example, three 500-mg doses at eight-hour intervals. Following treatment, the serum level of Bak1, Pdcd5, Casp2, Tradd, Trp53inp1 (mouse gene of Tp53inp1), Casp3, or Casp12, is reduced.

[2] = tested on: Casp3; assay: Gene expression in cardiac tissue of Tempol-fed mice, chip-based microarray
Protocol: (§1) To assess the effects of Tempol on gene expression, Tempol was administered to experimental mice at a dose of 5 mg/g of food from 14 months to 31 months after birth. Mice receiving the same food without the addition of Tempol were used as a negative control. At the age of 31 months, the experimental animals were sacrificed and the hearts were surgically removed. The expression of a broad spectrum of genes in the cardiac tissue was assessed using chip-based microarray technology. Such chips are well known in the art and are widely used to assess gene expression.

[3] = tested on: Casp12; assay: as above
Protocol: as §1

[4] = tested on: Casp2; assay: as above
Protocol: as §1

[5] = tested on: Pdcd5; assay: as above
Protocol: as §1

[6] = tested on: Tradd; assay: as above
Protocol: as §1

[7] = tested on: Trp53inp1 (mouse gene of Tp53inp1); assay: as above
Protocol: as §1

[8] = tested on: Bak1; assay: as above
Protocol: as §1

[9] = Tempol 5 mg/g of food vs control mice
[10] = Tempol-treated vs control mice, P-value 0.00
[11] = Tempol-treated vs control mice, P-value 0.03
[12] = Tempol-treated vs control mice, P-value 0.01

With `CC1(C)CC(O)CC(C)(C)N1[O]` [Tempol, 4-hydroxy-2,2,6,6-tetramethylpiperidine-1-oxyl] the “serum level of Bak1, Pdcd5, Casp2, Tradd, Trp53inp1, Casp3, or Casp12 following treatment” value (“serum level of Bak1, Pdcd5, Casp2, Tradd” below) ([1]; Example 2: 70-kilogram human subject with increased expression level of the gene) was “reduced”, the “serum level of Bak1, Pdcd5, Casp2, Tradd” value ([1]; Example 3: 70-kilogram human subject with decreased immune response to a bacterial infection) was “reduced” and the “serum level of Bak1, Pdcd5, Casp2, Tradd” value ([1]; Example 4: 70-kilogram human subject at risk for a psychiatric condition) was “reduced”. For the same compound, the “serum level of Bak1, Pdcd5, Casp2, Tradd” value ([1]; Example 5: 70-kilogram human subject at risk for stress-induced apoptosis) was “reduced”, the “serum level of Bak1, Pdcd5, Casp2, Tradd” value ([1]; Example 6: 70-kilogram human subject at risk for a disease associated with an increased level of apoptosis) was “reduced” and the “serum level of Bak1, Pdcd5, Casp2, Tradd” value ([1]; Example 7: 70-kilogram human subject at risk of a disease having an increased expression level of the gene) was “reduced”. The “serum level of Bak1, Pdcd5, Casp2, Tradd” value ([1]; Example 8: 70-kilogram human subject at risk of Parkinson's disease) was “reduced”, the “Casp3 expression change, in words” value [2, 9] was “statistically significant decrease in expression” and the Casp3 fold change [2, 10] was −1.47. For the same compound, the “Casp3 expression, Tempol-treated mice” value ([2]; age 31 months, Tempol 5 mg/g of food from 14 to 31 months, control mice 604) was 414, the “Casp12 expression change, in words” value [3, 9] was “statistically significant decrease in expression” and the Casp12 fold change ([3]; Tempol-treated vs control mice, P-value 0.02) was −1.61. For the same compound, the “Casp12 expression, Tempol-treated mice” value ([3]; age 31 months, Tempol 5 mg/g of food from 14 to 31 months, control mice 701) was 436, the “Casp2 expression change, in words” value [4, 9] was “statistically significant decrease in expression” and the Casp2 fold change [4, 11] was −1.20. For the same compound, the “Casp2 expression, Tempol-treated mice” value ([4]; age 31 months, Tempol 5 mg/g of food from 14 to 31 months, control mice 316) was 261, the “Pdcd5 expression change, in words” value [5, 9] was “statistically significant decrease in expression” and the Pdcd5 fold change [5, 11] was −1.15. The “Pdcd5 expression, Tempol-treated mice” value ([5]; age 31 months, Tempol 5 mg/g of food from 14 to 31 months, control mice 2863) was 2503, the “Tradd expression change, in words” value [6, 9] was “statistically significant decrease in expression” and the Tradd fold change [6, 12] was −1.23. The “Tradd expression, Tempol-treated mice” value ([6]; age 31 months, Tempol 5 mg/g of food from 14 to 31 months, control mice 288) was 233, the “Trp53inp1 expression change, in words” value [7, 9] was “statistically significant decrease in expression” and the Trp53inp1 fold change [7, 10] was −1.33. For the same compound, the “Trp53inp1 expression, Tempol-treated mice” value ([7]; age 31 months, Tempol 5 mg/g of food from 14 to 31 months, control mice 1107) was 830, the “Bak1 expression change, in words” value [8, 9] was “statistically significant decrease in expression” and the Bak1 fold change [8, 12] was −1.15. For the same compound, the “Bak1 expression, Tempol-treated mice” value ([8]; age 31 months, Tempol 5 mg/g of food from 14 to 31 months, control mice 260) was 226.
